The record followed here is paper PMC4491177, “Co-translational capturing of nascent ribosomal proteins by their dedicated chaperones” (Nature Communications, 2015).

Positions count from the first letter of the chain named. Numbers in names are those of the source. Ends that are not written are not given here.

The target in assay [1] is T1, ScSqt1.53C (WD-repeat β-propeller domain of Sqt1) (Saccharomyces cerevisiae, UniProt P35184).
T1 construct: ScSqt1.53C (residues 53–431); (His)6 (C); made in house; host or cells: E. coli Rosetta(DE3)
T1 sequence (P35184 53-431): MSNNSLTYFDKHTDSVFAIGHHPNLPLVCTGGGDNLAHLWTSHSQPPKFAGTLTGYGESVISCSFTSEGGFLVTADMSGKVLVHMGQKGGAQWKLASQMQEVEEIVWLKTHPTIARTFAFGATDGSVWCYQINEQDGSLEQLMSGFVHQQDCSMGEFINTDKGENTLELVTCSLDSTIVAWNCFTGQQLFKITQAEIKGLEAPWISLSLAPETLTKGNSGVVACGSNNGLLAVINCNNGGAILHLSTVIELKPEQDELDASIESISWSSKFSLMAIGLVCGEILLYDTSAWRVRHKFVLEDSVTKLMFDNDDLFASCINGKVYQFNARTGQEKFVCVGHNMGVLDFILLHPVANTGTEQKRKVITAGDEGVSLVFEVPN
The experiment in a line: isothermal titration calorimetry (ITC), S. cerevisiae. It is filed as binding. The conditions noted are these: for K / N / ΔH / ΔS: ScSqt1.53C, 15 °C, One Set of Sites fit. As for the experimental part:
ITC experiments were performed on a MicroCal ITC 2000 instrument (GE Healthcare). The following peptides, corresponding to the N-terminal 19 (without N-terminal methionine) or 20 amino acids of S. cerevisiae and C. thermophilum Rpl10, were synthesized with a free acid group at the C terminus (peptides&elephants): Rpl10(1–20) NH2-[…]-COOH, Rpl10(2–20) NH2-[…]-COOH, ctRpl10(1–20) NH2-[…]-COOH and ctRpl10(2–20) NH2-[…]-COOH. Peptides (1 mg each) were dissolved in the appropriate volume of gel-filtration buffer (20 mM HEPES–NaOH (pH 7.5), 200 mM NaCl, 20 mM KCl and 20 mM MgCl2), which was used for the purification of ScSqt1.53C and ctSqt1.52C, to obtain 1 mM stock solutions. Concentrations of proteins were determined by measuring the A280 using a NanoDrop Lite spectrophotometer (Thermo Scientific). For determination of the C. thermophilum Sqt1/L10-N binding, 200 μl of ctSqt1.52C (10 μM) was added to the sample cell and 2 μl of 100 μM solutions of the peptides was titrated in at 25 °C. For determination of the S. cerevisiae Sqt1/L10-N binding, 200 μl of ScSqt1.53C (100 μM) was added to the sample cell and 2 μl of 1 mM solutions of the peptides were titrated in at 15 °C. ITC data were processed using the Origin ITC Software (OriginLab) and thermodynamic parameters were obtained by fitting the data to a One Set of Sites binding model.
In general terms: Isothermal titration calorimetry measures the heat released or taken up as one component is titrated into another.

The subject of a further assay is Sqt1-Flag. The experiment in a line: in vitro binding assay, Ni-affinity co-purification of Sqt1-Flag. Details: species or system S. cerevisiae. Conditions: co-expression in E. coli, C-terminally (His)6-tagged Rpl10, Ni-affinity, SDS–PAGE and western blot. How it is done: For in vitro binding assays between Rpl10-(His)6 and Sqt1-Flag or between ctRpl10-(His)6 and ctSqt1, proteins were co-expressed from pETDuet-1 (Novagen) in Rosetta(DE3) (Novagen) or BL21(DE3) (Novagen) E. coli cells, respectively. Cells were grown in 200 ml of lysogeny broth medium and protein expression was induced at an OD600 of ∼0.6–0.8 by the addition of isopropyl-β-D-thiogalactoside to a final concentration of 0.5 mM. After 5 h of growth at 30 °C, cells were harvested and stored at −80 °C. Cells were resuspended in 25 ml lysis buffer (50 mM Tris-HCl (pH 7.5), 200 mM NaCl, 1.5 mM MgCl2 and 5% glycerol) and lysed with a M-110L Microfluidizer (Microfluidics). The lysate (30 ml volume) was adjusted by the addition of 300 μl 10% NP-40 to 0.1% NP-40 (note that from here onwards all buffers contained 0.1% NP-40). An aliquot of 100 μl of total extract (sample T) was taken and mixed with 100 μl of 6 × loading buffer. The total extract was then centrifuged at 4 °C for 20 min at 14,000 r.p.m. The soluble extract was transferred to a 50-ml Falcon tube and, as above, an aliquot of 100 μl of soluble extract (sample S) was taken and mixed with 100 μl of 6 × loading buffer. The insoluble pellet fraction (sample P) was resuspended in 3 ml of lysis buffer, and 10 μl thereof were mixed with 90 μl of lysis buffer and 100 μl of 6 × loading buffer. […]

The subject of the next assay is Sqt1. The experiment in a line: Y2H interaction with Sqt1. It counts as binding, S. cerevisiae. Conditions: reporter strain PJ69-4A, HIS3 and ADE2 reporters, 3 days at 30 °C. How it is done:
For Y2H interaction assays, plasmids expressing bait proteins, fused to the Gal4 DNA-binding domain (G4BD), and prey proteins, fused to the Gal4 activation domain (G4AD), were co-transformed into reporter strain PJ69-4A. Y2H interactions were documented by spotting representative transformants in 10-fold serial dilution steps onto SC-Trp-Leu, SC-Trp-Leu-His (HIS3 reporter) and SC-Trp-Leu-Ade (ADE2 reporter) plates, which were incubated for 3 days at 30 °C. Growth on SC-Trp-Leu-His plates is indicative of a weak/moderate interaction, whereas only relatively strong interactions permit growth on SC-Trp-Leu-Ade plates.

For assay [2], the target named is T2, ctSqt1.52C-(His)6 (Chaetomium thermophilum).
T2 chain: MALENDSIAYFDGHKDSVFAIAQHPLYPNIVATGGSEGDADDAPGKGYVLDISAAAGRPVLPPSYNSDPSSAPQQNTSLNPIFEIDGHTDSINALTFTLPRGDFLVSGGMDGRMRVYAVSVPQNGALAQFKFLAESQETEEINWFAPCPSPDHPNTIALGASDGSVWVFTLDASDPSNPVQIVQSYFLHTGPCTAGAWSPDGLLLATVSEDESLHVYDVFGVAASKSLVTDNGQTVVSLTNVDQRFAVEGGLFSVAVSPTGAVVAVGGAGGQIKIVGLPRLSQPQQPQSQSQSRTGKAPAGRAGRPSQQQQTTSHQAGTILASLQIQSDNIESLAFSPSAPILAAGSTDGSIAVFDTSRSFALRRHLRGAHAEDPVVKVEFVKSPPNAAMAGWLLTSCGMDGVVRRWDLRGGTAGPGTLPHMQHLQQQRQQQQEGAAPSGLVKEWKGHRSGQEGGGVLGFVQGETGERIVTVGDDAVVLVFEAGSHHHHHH
Briefly: ITC.

Assay [3] concerns the target T2, ctSqt1.52C-(His)6. The experiment in a line: ITC; 200 μl ctSqt1.52C (10 μM) in the cell, 2 μl injections of 100 μM peptide, 25 °C; 20 mM HEPES–NaOH (pH 7.5), 200 mM NaCl, 20 mM KCl, 20 mM MgCl2; One Set of Sites model; approximate Kd.
Assay [4] concerns the target T3, Sqt1.53C-(His)6 (S. cerevisiae, UniProt P35184 53-431).
T3 chain: T1 sequence (P35184 53-431)
The experiment in a line: ITC.

The target in assay [5] is T4, Sqt1.53C-(His)6 (S. cerevisiae, UniProt P35184 53-431).
T4 construct: Sqt1, S. cerevisiae, residues 53–431 (WD-repeat β-propeller domain); the ITC methods name only 'ScSqt1.53C'; the only free Sqt1.53C whose purification is described is Sqt1.53C-(His)6; also called ScSqt1.53C; source: E. coli Rosetta(DE3), purified (Ni-NTA, size-exclusion chromatography)
T4 sequence (looked up): T1 sequence (P35184 53-431)
Briefly: ITC; 200 μl ScSqt1.53C (100 μM) in the cell, 2 μl injections of 1 mM peptide, 15 °C; 20 mM HEPES–NaOH (pH 7.5), 200 mM NaCl, 20 mM KCl, 20 mM MgCl2; One Set of Sites model; approximate Kd. The conditions noted are these: both partners purified.

By Kd is commonly meant the free concentration of one partner at which half of the binding sites on the other are occupied at equilibrium, for simple one-to-one binding. A low value points to tighter binding.

In the case of ARRPARCYRYQKNKPYPKS [ScL10-N(2–20)], in assay [1], the K is on record as 4.78E7±2.57E7, the N is given as 1.076±0.0048, the ΔH was −1.187E4±102.9 and the ΔS is −6.02. The “preference of Sqt1 for the L10-N peptide lacking Met1” value in assay [1] (vs peptide containing Met1, S. cerevisiae) is “only a slight preference”.

Regarding MARRPARCYRYQKNKPYPKS [ScL10-N(1-20)], in assay [1], the K was determined as 2.33E7±1.79E7, the N turned out to be 1.09±0.00692, the ΔH was −1.101E4 +/−158.6 and the ΔS is reported as −4.45.

Turning to “L10-N: N-terminal residues of Rpl10 (general term; co-crystals and pull-downs use co-expressed Rpl10(1–20)-(His)6) (MARRPARCYRYQKNKPYPKS; not fully specified)”, the “co-purification with / interaction with Sqt1” value with Sqt1-Flag is “required and sufficient for a robust interaction both with full-length Sqt1 and its β-propeller domain”.

Regarding “amino acids 1–20 of Rpl10: amino acids 1–20 of Rpl10, Y2H bait fused to G4BD (MARRPARCYRYQKNKPYPKS; also: fused to Gal4 DNA-binding domain; UniProt P41805 1-20, looked up, fragment)”, the “Y2H interaction with Sqt1” value in the assay with Sqt1 is on record as “sufficient to mediate the interaction with Sqt1”.

B1: first 64 amino acids of Rpl10: first 64 amino acids of Rpl10, Y2H bait (protein, UniProt P41805 1-64, looked up, fragment)
chain: MARRPARCYRYQKNKPYPKSRYNRAVPDSKIRIYDLGKKKATVDEFPLCVHLVSNELEQLSSEA
modifications: Y2H bait
notes: first 64 amino acids of Rpl10, Y2H bait
Turning to B1, the “Y2H interaction with Sqt1” value in the assay with Sqt1 is on record as “binds”.

B2: ctRpl10(2–20) peptide (peptide)
peptide: ARRPARCYRYCKNKPYPKS
B2 registered a Ka in the assay with ctSqt1.52C-(His)6 [2] of 2.82e+07 M⁻¹. This molecule registered a Kd with ctSqt1.52C-(His)6 [3] of 35 nM.

B3: Arg10 to glutamate: Rpl10 variant, Arg10 mutated to glutamate (protein, UniProt P41805 2-221, looked up, variant R10E)
Large ribosomal subunit …: ARRPARCYEYQKNKPYPKSRYNRAVPDSKIRIYDLGKKKATVDEFPLCVHLVSNELEQLSSEALEAARICANKYMTTVSGRDAFHLRVRVHPFHVLRINKMLSCAGADRLQQGMRGAWGKPHGLAARVDIGQIIFSVRTKDSNKDVVVEGLRRARYKFPGQQKIILSKKWGFTNLDRPEYLKKREAGEVKDDGAFVKFLSKKGSLENNIREFPEYFAAQA
Consider B3, for which, in the assay on Sqt1, the “Y2H interaction with Sqt1” value is “abolished”.

B4: Arg4 to glutamate: Rpl10 variant, substitution of Arg4 to glutamate (protein, UniProt P41805 2-221, looked up, variant R4E)
Large ribosomal subunit …: B3 Large ribosomal subunit … with R3E, E9R
On to B4, for which the “Y2H interaction with Sqt1” value in the assay with Sqt1 is given as “only slightly reduced the interaction with Sqt1”.

B5: Rpl10(2–20) peptide (peptide)
peptide: ARRPARCYRYQKNKPYPKS
notes: Rpl10 (uL16), S. cerevisiae, N-terminal 19 amino acids without the N-terminal methionine; free amino group at the N terminus, free acid group at the C terminus; also called ScL10-N peptide lacking Met1 (amino acids 2–20); source: synthetic peptide (peptides&elephants)
Consider B5, for which the Ka with Sqt1.53C-(His)6 [4] is 4.78e+07 M⁻¹. The equilibrium dissociation constant (Kd) in the assay with Sqt1.53C-(His)6 [5] was approximately 21 nM.

B6: ctRpl10(1–20) peptide (peptide)
peptide: MARRPARCYRYCKNKPYPKS
In the assay with ctSqt1.52C-(His)6 [2], B6 came in with a Ka of 2.26e+06 M⁻¹. The molecule also returned a dissociation constant Kd with ctSqt1.52C-(His)6 [3] of 442 nM.

B7: Rpl10(1–20) peptide (peptide)
peptide: MARRPARCYRYQKNKPYPKS
notes: Rpl10 (uL16), S. cerevisiae, N-terminal 20 amino acids; free amino group at the N terminus, free acid group at the C terminus; also called ScL10-N peptide including Met1 (amino acids 1–20); source: synthetic peptide (peptides&elephants)
For the molecule B7, the Ka in the assay with Sqt1.53C-(His)6 [4] stood at 2.33e+07 M⁻¹. In the assay with Sqt1.53C-(His)6 [5], this molecule displayed a dissociation constant Kd of approximately 43 nM.
